Consider eleven molecules from ChEMBL document CHEMBL1139278 (2009).

What all share (format): functional
Assay [1] deals with Staphylococcus aureus. Nature of the assay: Antimicrobial activity against methicillin-susceptible Staphylococcus aureus Smith by NCCLS method.
Assay [2] relates to Staphylococcus aureus. The assay is described as follows: Antimicrobial activity against methicillin-resistant Staphylococcus aureus KMP9.
The test system of assay [3] is Streptococcus pneumoniae. The assay is described as follows: Antimicrobial activity against penicillin-susceptible Streptococcus pneumoniae ATCC 49619 by NCCLS method.
In assay [4] the test system is Streptococcus pneumoniae. The assay is described as follows: Antimicrobial activity against penicillin-resistant Streptococcus pneumoniae KT2524 by NCCLS method.
In the next assay the test system is Streptococcus pyogenes. Nature of the assay: Antimicrobial activity against Streptococcus pyogenes ATCC 112344 by NCCLS method.
A further assay concerns Enterococcus faecium. Nature of the assay: Antimicrobial activity against vancomycin-resistant Enterococcus faecium KU1778 by NCCLS method.
The subject of another assay is Moraxella catarrhalis. The assay is described as follows: Antimicrobial activity against Moraxella catarrhalis K1209 by NCCLS method.
Another assay deals with Haemophilus influenzae. Nature of the assay: Antimicrobial activity against Haemophilus influenzae TH13 by NCCLS method.
In assay [5] the test system is Staphylococcus aureus. Nature of the assay: Antimicrobial activity against methicillin-susceptible Staphylococcus aureus infected iv dosed mouse assessed as survival rate after 1 hr of infection.

A word on the ED50: it is the dose that gives a 50% effect, or the effect in half of the subjects. `C=C[C@]1(C)C[C@@H](OC(=O)CN2CCN(C(=O)CCn3cnc4c(N5CCC(N)C5)ncnc43)C(CC)C2)[C@]2(C)[C@H](C)CC[C@]3(CCC(=O)[C@@H]32)[C@@H](C)[C@@H]1O.Cl.Cl` (some centres undefined): the MIC with Staphylococcus aureus [1] stood at 0.25 µg/mL; with Staphylococcus aureus [2] it was 0.25 µg/mL; in the assay on Streptococcus pneumoniae [3], 0.063 µg/mL; with Streptococcus pneumoniae [4], 0.063 µg/mL; in the assay with Streptococcus pyogenes it was 0.032 µg/mL; in the assay with Enterococcus faecium, 0.125 µg/mL. The results for the MIC against Moraxella catarrhalis and in the assay on Haemophilus influenzae were 0.125 µg/mL and 4 µg/mL, respectively. In the assay with Staphylococcus aureus [5], the ED50 came to 2.95 mg/kg.
On to `C=C[C@]1(C)C[C@@H](OC(=O)CN2CCN(C(=O)CCn3cnc4c(N5CC[C@H](CNC)C5)ncnc43)[C@@H](C)C2)[C@]2(C)[C@H](C)CC[C@]3(CCC(=O)[C@@H]32)[C@@H](C)[C@@H]1O.Cl.Cl`, for which the MIC stood at 0.25 µg/mL against Staphylococcus aureus [1]; 0.5 µg/mL against Staphylococcus aureus [2]; 0.063 µg/mL against Streptococcus pneumoniae [3]; 0.063 µg/mL against Streptococcus pneumoniae [4]; 0.032 µg/mL against Streptococcus pyogenes; 0.25 µg/mL in the assay on Enterococcus faecium. In addition, the MIC came to 0.125 µg/mL against Moraxella catarrhalis and 2 µg/mL against Haemophilus influenzae. The ED50 in the assay on Staphylococcus aureus [5] was 1.1 mg/kg.
Turning to `C=C[C@]1(C)C[C@@H](OC(=O)CN2CCN(C(=O)CCn3cnc4c(N5CCC(N)C5)ncnc43)CC2C)[C@]2(C)[C@H](C)CC[C@]3(CCC(=O)[C@@H]32)[C@@H](C)[C@@H]1O.Cl.Cl` (some centres undefined), the MIC in the assay on Staphylococcus aureus [1] stood at 0.25 µg/mL; against Staphylococcus aureus [2], 0.5 µg/mL; in the assay with Streptococcus pneumoniae [3] it was 0.063 µg/mL; against Streptococcus pneumoniae [4], 0.063 µg/mL; against Streptococcus pyogenes it was 0.032 µg/mL; with Enterococcus faecium, 0.125 µg/mL. The MIC against Moraxella catarrhalis was determined as 0.125 µg/mL; with Haemophilus influenzae, 2 µg/mL. Besides, the ED50 in the assay with Staphylococcus aureus [5] is 1.42 mg/kg.
`C=C[C@]1(C)C[C@@H](OC(=O)CN2CCN(C(=O)CCn3cnc4c(N5CCC(N)C5)ncnc43)C[C@H]2C)[C@]2(C)[C@H](C)CC[C@]3(CCC(=O)[C@@H]32)[C@@H](C)[C@@H]1O.Cl.Cl` (some centres undefined): the MIC in the assay on Staphylococcus aureus [1] is 0.25 µg/mL; in the assay with Staphylococcus aureus [2], 0.5 µg/mL; with Streptococcus pneumoniae [3] it was 0.032 µg/mL; against Streptococcus pneumoniae [4] it was 0.063 µg/mL; in the assay with Streptococcus pyogenes it was 0.016 µg/mL; against Enterococcus faecium it was 0.063 µg/mL. For the same molecule, the MIC with Moraxella catarrhalis is 0.063 µg/mL; against Haemophilus influenzae, 2 µg/mL. Further, the ED50 in the assay with Staphylococcus aureus [5] came out at 1.42 mg/kg.
In the case of `C=C[C@]1(C)C[C@@H](OC(=O)CN2CCN(C(=O)CCn3cnc4c(N5CCC(N)CC5)ncnc43)[C@@H](C)C2)[C@]2(C)[C@H](C)CC[C@]3(CCC(=O)[C@@H]32)[C@@H](C)[C@@H]1O.Cl.Cl`, the MIC turned out to be 0.25 µg/mL with Staphylococcus aureus [1]; 0.5 µg/mL in the assay with Staphylococcus aureus [2]; 0.063 µg/mL in the assay with Streptococcus pneumoniae [3]; 0.063 µg/mL in the assay with Streptococcus pneumoniae [4]; 0.032 µg/mL against Streptococcus pyogenes; 0.125 µg/mL in the assay with Enterococcus faecium. Moreover, the values for the MIC against Moraxella catarrhalis and with Haemophilus influenzae were 0.125 µg/mL and 4 µg/mL, respectively. Moreover, in the assay with Staphylococcus aureus [5], the ED50 amounted to 1.66 mg/kg.
Consider `C=C[C@]1(C)C[C@@H](OC(=O)CN2CCN(C(=O)CCn3cnc4c(N5CC[C@@H](N)C5)ncnc43)[C@@H](C)C2)[C@]2(C)[C@H](C)CC[C@]3(CCC(=O)[C@@H]32)[C@@H](C)[C@@H]1O.Cl.Cl`, for which the MIC in the assay on Staphylococcus aureus [1] was 0.125 µg/mL; against Staphylococcus aureus [2] it was 0.25 µg/mL; against Streptococcus pneumoniae [3] it was 0.032 µg/mL; against Streptococcus pneumoniae [4], 0.032 µg/mL; against Streptococcus pyogenes, 0.016 µg/mL; in the assay on Enterococcus faecium, 0.125 µg/mL. Further, the MIC against Moraxella catarrhalis amounted to 0.125 µg/mL; against Haemophilus influenzae, 2 µg/mL. In addition, the ED50 in the assay with Staphylococcus aureus [5] is 1.56 mg/kg.
In the case of `C=C[C@]1(C)C[C@@H](OC(=O)CN2CC(C)N(C(=O)CCn3cnc4c(N5CCC(N)C5)ncnc43)CC2C)[C@]2(C)[C@H](C)CC[C@]3(CCC(=O)[C@@H]32)[C@@H](C)[C@@H]1O.Cl.Cl` (some centres undefined), the MIC in the assay with Staphylococcus aureus [1] is 0.25 µg/mL; with Staphylococcus aureus [2], 0.25 µg/mL; in the assay on Streptococcus pneumoniae [3], 0.063 µg/mL; with Streptococcus pneumoniae [4], 0.063 µg/mL; in the assay on Streptococcus pyogenes, 0.032 µg/mL; in the assay with Enterococcus faecium, 0.125 µg/mL. Also, the values for the MIC against Moraxella catarrhalis and in the assay with Haemophilus influenzae were 0.125 µg/mL and 4 µg/mL, respectively. Moreover, the ED50 with Staphylococcus aureus [5] turned out to be 3.13 mg/kg.
In the case of `C=C[C@]1(C)C[C@@H](OC(=O)CN2CCN(C(=O)CCn3cnc4c(N5CCC(N)C5)ncnc43)C(C)(C)C2)[C@]2(C)[C@H](C)CC[C@]3(CCC(=O)[C@@H]32)[C@@H](C)[C@@H]1O.Cl.Cl` (some centres undefined), the MIC against Staphylococcus aureus [1] was determined as 0.125 µg/mL; in the assay on Staphylococcus aureus [2], 0.125 µg/mL; in the assay on Streptococcus pneumoniae [3], 0.032 µg/mL; in the assay on Streptococcus pneumoniae [4], 0.032 µg/mL; against Streptococcus pyogenes it was 0.016 µg/mL; in the assay with Enterococcus faecium, 0.063 µg/mL. In addition, the MIC in the assay on Moraxella catarrhalis turned out to be 0.032 µg/mL; with Haemophilus influenzae, 4 µg/mL. Besides, in the assay with Staphylococcus aureus [5], the ED50 was determined as 2.32 mg/kg.
For the molecule `C=C[C@]1(C)C[C@@H](OC(=O)CN2CC(C)N(C(=O)CCn3cnc4c(N5CCC(N)C5)ncnc43)C(C)C2)[C@]2(C)[C@H](C)CC[C@]3(CCC(=O)[C@@H]32)[C@@H](C)[C@@H]1O.Cl.Cl` (some centres undefined), the MIC stood at 0.125 µg/mL in the assay with Staphylococcus aureus [1]; 0.125 µg/mL in the assay with Staphylococcus aureus [2]; 0.016 µg/mL in the assay with Streptococcus pneumoniae [3]; 0.016 µg/mL in the assay on Streptococcus pneumoniae [4]; 0.016 µg/mL against Streptococcus pyogenes; 0.063 µg/mL with Enterococcus faecium. The results for the MIC in the assay on Moraxella catarrhalis and against Haemophilus influenzae were 0.063 µg/mL and 4 µg/mL, respectively. Also, in the assay on Staphylococcus aureus [5], the ED50 was over 3.13 mg/kg.
On to `C=C[C@]1(C)C[C@@H](OC(=O)CN2CCN(C(=O)CCn3cnc4c(N5CCC(CNC)C5)ncnc43)[C@@H](C)C2)[C@]2(C)[C@H](C)CC[C@]3(CCC(=O)[C@@H]32)[C@@H](C)[C@@H]1O.Cl.Cl` (some centres undefined), for which the MIC turned out to be 0.125 µg/mL in the assay with Staphylococcus aureus [1]; 1 µg/mL in the assay on Staphylococcus aureus [2]; 0.063 µg/mL against Streptococcus pneumoniae [3]; 0.032 µg/mL in the assay with Streptococcus pneumoniae [4]; 0.063 µg/mL in the assay with Streptococcus pyogenes; 0.25 µg/mL with Enterococcus faecium. Also, the MIC is 0.125 µg/mL with Moraxella catarrhalis and 2 µg/mL with Haemophilus influenzae. In addition, the ED50 with Staphylococcus aureus [5] stood at 1.2 mg/kg.
Regarding `C=C[C@]1(C)C[C@@H](OC(=O)CN2CCN(C(=O)CCn3cnc4c(N5CCC(N)C5)ncnc43)C[C@@H]2C)[C@]2(C)[C@H](C)CC[C@]3(CCC(=O)[C@@H]32)[C@@H](C)[C@@H]1O.Cl` (some centres undefined), the MIC stood at 0.25 µg/mL against Staphylococcus aureus [1]; 0.5 µg/mL in the assay on Staphylococcus aureus [2]; 0.125 µg/mL with Streptococcus pneumoniae [3]; 0.063 µg/mL against Streptococcus pneumoniae [4]; 0.032 µg/mL in the assay with Streptococcus pyogenes; 0.125 µg/mL in the assay with Enterococcus faecium. Also, the MIC against Moraxella catarrhalis amounted to 0.125 µg/mL; in the assay with Haemophilus influenzae, 4 µg/mL. For the same molecule, in the assay on Staphylococcus aureus [5], the ED50 worked out at 1.28 mg/kg.
